Data from patent publication US4182896A, “Indane derivatives” (Societe Hexachimie, priority 1974, dated 1980).
Where a name gives a salt, the structure may show the parent alone.

Test system: SPF male rats, OFA strain
Experiment: Anti-inflammatory activity: paw swelling after subcutaneous plantar injection of carraghenine, oral administration
Type: in vivo
Conditions: Rattus norvegicus, po, 16 mg/kg oral, carraghenine, read-out: percentage reduction in the inflammation
Procedure: Anti-inflammatory activity
The products to be tested are administered orally to batches of 12 SPF male rats, OFA strain, weighing 120-130 g, 2 hours and 30 minutes (1/2 dose each time) before the subcutaneous plantar injection of 0.05 ml of a 1% strength solution of carraghenine. The volume of the back paw which received the phlogogenic agent is measured at regular intervals. The 50% effective dose is calculated at the moment of greatest swelling of the controls.
The results are given in Tables I to IV below, in which the percentage reduction in the inflammation is noted.

| Compound | inhibition in vivo at 16 mg/kg [%] |
| --- | --- |
| CC(C(=O)O)c1ccc2c(c1)CC(C)(C)C2 (stereo not drawn) [Example 16, 2-Methyl-[2,2-dimethyl-indanyl-(5)]-acetic acid] | 4 |

Same assay, conditions: Rattus norvegicus, po, 32 mg/kg oral, carraghenine, read-out: percentage reduction in the inflammation

| Compound | inhibition in vivo at 32 mg/kg [%] |
| --- | --- |
| CC(C)C1Cc2ccc(CC(=O)O)cc2C1 (stereo not drawn) [Example 4, [2-Isopropyl-indanyl-(5)]-acetic acid] | 10 |
| CC(C)C1Cc2ccc(CC(=O)OCCN3CCOCC3)cc2C1 (stereo not drawn) [Example 8, Hydrochloride of the morpholino-ethyl ester of [2-isopropyl-indanyl-(5)]-acetic acid] | 17 |
| O=C(O)Cc1ccc2c(c1)CC(C1CCCCC1)C2 (stereo not drawn) [Example 11, [2-Cyclohexyl-indanyl-(5)]-acetic acid] | 4 |
| CC(C(=O)O)c1ccc2c(c1)CC(C)(C)C2 (stereo not drawn) [Example 16, 2-Methyl-[2,2-dimethyl-indanyl-(5)]-acetic acid] | 20 |

Same assay, conditions: Rattus norvegicus, po, 64 mg/kg oral, carraghenine, read-out: percentage reduction in the inflammation

| Compound | inhibition in vivo at 64 mg/kg [%] |
| --- | --- |
| CC1CC(C)c2cc(CC(=O)O)ccc21 (stereo not drawn) [Example 1, [1,3-Dimethyl-indanyl-(5)]-acetic acid] | 15 |
| CC1CC(C)c2cc(CC(=O)O)c(Cl)cc21 (stereo not drawn) [Example 3, [6-Chloro-1,3-dimethyl-indanyl-(5)]-acetic acid] | 24 |
| CC(C)C1Cc2ccc(CC(=O)O)cc2C1 (stereo not drawn) [Example 4, [2-Isopropyl-indanyl-(5)]-acetic acid] | 19 |
| CC(C)C1Cc2ccc(CC(=O)OCCN3CCOCC3)cc2C1 (stereo not drawn) [Example 8, Hydrochloride of the morpholino-ethyl ester of [2-isopropyl-indanyl-(5)]-acetic acid] | 23 |
| O=C(O)Cc1ccc2c(c1)CC(C1CCCCC1)C2 (stereo not drawn) [Example 11, [2-Cyclohexyl-indanyl-(5)]-acetic acid] | 8 |
| CC(C(=O)O)c1ccc2c(c1)CC(C)(C)C2 (stereo not drawn) [Example 16, 2-Methyl-[2,2-dimethyl-indanyl-(5)]-acetic acid] | 37 |

Same assay, conditions: Rattus norvegicus, po, 128 mg/kg oral, carraghenine, read-out: percentage reduction in the inflammation

| Compound | inhibition in vivo at 128 mg/kg [%] |
| --- | --- |
| CC1CC(C)c2cc(CC(=O)O)ccc21 (stereo not drawn) [Example 1, [1,3-Dimethyl-indanyl-(5)]-acetic acid] | 42 |
| CC1CC(C)c2cc(CC(=O)O)c(Cl)cc21 (stereo not drawn) [Example 3, [6-Chloro-1,3-dimethyl-indanyl-(5)]-acetic acid] | 36 |
| CC(C)C1Cc2ccc(CC(=O)O)cc2C1 (stereo not drawn) [Example 4, [2-Isopropyl-indanyl-(5)]-acetic acid] | 47 |
| CC(C)C1Cc2ccc(CC(=O)OCCN3CCOCC3)cc2C1 (stereo not drawn) [Example 8, Hydrochloride of the morpholino-ethyl ester of [2-isopropyl-indanyl-(5)]-acetic acid] | 52 |
| O=C(O)Cc1ccc2c(c1)CC(C1CCCCC1)C2 (stereo not drawn) [Example 11, [2-Cyclohexyl-indanyl-(5)]-acetic acid] | 13 |
| CC(C(=O)O)c1ccc2c(c1)CC(C)(C)C2 (stereo not drawn) [Example 16, 2-Methyl-[2,2-dimethyl-indanyl-(5)]-acetic acid] | 61 |

Same assay, conditions: Rattus norvegicus, po, 256 mg/kg oral, carraghenine, read-out: percentage reduction in the inflammation

| Compound | inhibition in vivo at 256 mg/kg [%] |
| --- | --- |
| CC1CC(C)c2cc(CC(=O)O)ccc21 (stereo not drawn) [Example 1, [1,3-Dimethyl-indanyl-(5)]-acetic acid] | 88 |
| CC1CC(C)c2cc(CC(=O)O)c(Cl)cc21 (stereo not drawn) [Example 3, [6-Chloro-1,3-dimethyl-indanyl-(5)]-acetic acid] | 56 |
| CC(C)C1Cc2ccc(CC(=O)O)cc2C1 (stereo not drawn) [Example 4, [2-Isopropyl-indanyl-(5)]-acetic acid] | 80 |
| CC(C)C1Cc2ccc(CC(=O)OCCN3CCOCC3)cc2C1 (stereo not drawn) [Example 8, Hydrochloride of the morpholino-ethyl ester of [2-isopropyl-indanyl-(5)]-acetic acid] | 62 |
| O=C(O)Cc1ccc2c(c1)CC(C1CCCCC1)C2 (stereo not drawn) [Example 11, [2-Cyclohexyl-indanyl-(5)]-acetic acid] | 13 |
| CC(C(=O)O)c1ccc2c(c1)CC(C)(C)C2 (stereo not drawn) [Example 16, 2-Methyl-[2,2-dimethyl-indanyl-(5)]-acetic acid] | 94 |

Same assay, conditions: Rattus norvegicus, po, 512 mg/kg oral, carraghenine, read-out: percentage reduction in the inflammation

| Compound | inhibition in vivo at 512 mg/kg [%] |
| --- | --- |
| O=C(O)Cc1ccc2c(c1)CC(C1CCCCC1)C2 (stereo not drawn) [Example 11, [2-Cyclohexyl-indanyl-(5)]-acetic acid] | 32 |

Same assay, conditions: Rattus norvegicus, po, at the moment of greatest swelling of the controls, read-out: ED50 (50% effective dose), anti-inflammatory

| Compound | ED50 [mg/kg] |
| --- | --- |
| CC1CC(C)c2cc(CC(=O)O)ccc21 (stereo not drawn) [Example 1, [1,3-Dimethyl-indanyl-(5)]-acetic acid] | 130 |
| CC1CC(C)c2cc(CC(=O)O)c(Cl)cc21 (stereo not drawn) [Example 3, [6-Chloro-1,3-dimethyl-indanyl-(5)]-acetic acid] | 200 |
| CC(C)C1Cc2ccc(CC(=O)O)cc2C1 (stereo not drawn) [Example 4, [2-Isopropyl-indanyl-(5)]-acetic acid] | 120 |
| CC(C)C1Cc2ccc(CC(=O)OCCN3CCOCC3)cc2C1 (stereo not drawn) [Example 8, Hydrochloride of the morpholino-ethyl ester of [2-isopropyl-indanyl-(5)]-acetic acid] | 150 |
| O=C(O)Cc1ccc2c(c1)CC(C1CCCCC1)C2 (stereo not drawn) [Example 11, [2-Cyclohexyl-indanyl-(5)]-acetic acid] | > 512 |
| CC(C(=O)O)c1ccc2c(c1)CC(C)(C)C2 (stereo not drawn) [Example 16, 2-Methyl-[2,2-dimethyl-indanyl-(5)]-acetic acid] | 73 |

Test system: male mice (SPF1, OF1 strain)
Experiment: Analgesic activity: inhibition of pain reactions (abdominal twistings) after intraperitoneal phenylbenzoquinone, oral administration
Type: in vivo
Conditions: Mus musculus, po, 8 mg/kg oral, read-out: percentage inhibition of pain reactions
Procedure: The products tested are administered orally to batches of 6 male mice (SPF1, OF1 strain) weighing 19-20 g.
1 hour later, 0.3 ml of a 0.02% strength solution of phenylbenzoquinone is injected intraperitoneally into each mouse and, from the 5th to the 10th minute after the latter treatment, the number of pain reactions (abdominal twistings) is counted.
Table V to VIII below give the percentage inhibition of these reactions.

| Compound | inhibition in vivo at 8 mg/kg [%] |
| --- | --- |
| CC(C(=O)O)c1ccc2c(c1)CC(C)(C)C2 (stereo not drawn) [Example 16, 2-Methyl-[2,2-dimethyl-indanyl-(5)]-acetic acid] | 13 |

Same assay, conditions: Mus musculus, po, 16 mg/kg oral, read-out: percentage inhibition of pain reactions

| Compound | inhibition in vivo at 16 mg/kg [%] |
| --- | --- |
| CC1CC(C)c2cc(CC(=O)O)ccc21 (stereo not drawn) [Example 1, [1,3-Dimethyl-indanyl-(5)]-acetic acid] | 25 |
| CC1CC(C)c2cc(CC(=O)O)c(Cl)cc21 (stereo not drawn) [Example 3, [6-Chloro-1,3-dimethyl-indanyl-(5)]-acetic acid] | 33 |
| CC(C)C1Cc2ccc(CC(=O)O)cc2C1 (stereo not drawn) [Example 4, [2-Isopropyl-indanyl-(5)]-acetic acid] | 6 |
| CC(C(=O)O)c1ccc2c(c1)CC(C)(C)C2 (stereo not drawn) [Example 16, 2-Methyl-[2,2-dimethyl-indanyl-(5)]-acetic acid] | 30 |

Same assay, conditions: Mus musculus, po, 32 mg/kg oral, read-out: percentage inhibition of pain reactions

| Compound | inhibition in vivo at 32 mg/kg [%] |
| --- | --- |
| CC1CC(C)c2cc(CC(=O)O)ccc21 (stereo not drawn) [Example 1, [1,3-Dimethyl-indanyl-(5)]-acetic acid] | 28 |
| CC1CC(C)c2cc(CC(=O)O)c(Cl)cc21 (stereo not drawn) [Example 3, [6-Chloro-1,3-dimethyl-indanyl-(5)]-acetic acid] | 51 |
| CC(C)C1Cc2ccc(CC(=O)O)cc2C1 (stereo not drawn) [Example 4, [2-Isopropyl-indanyl-(5)]-acetic acid] | 33 |
| CC(C)C1Cc2ccc(CC(=O)OCCN3CCOCC3)cc2C1 (stereo not drawn) [Example 8, Hydrochloride of the morpholino-ethyl ester of [2-isopropyl-indanyl-(5)]-acetic acid] | 10 |
| O=C(O)Cc1ccc2c(c1)CC(C1CCCCC1)C2 (stereo not drawn) [Example 11, [2-Cyclohexyl-indanyl-(5)]-acetic acid] | 15 |
| CC(C(=O)O)c1ccc2c(c1)CC(C)(C)C2 (stereo not drawn) [Example 16, 2-Methyl-[2,2-dimethyl-indanyl-(5)]-acetic acid] | 77 |

Same assay, conditions: Mus musculus, po, 64 mg/kg oral, read-out: percentage inhibition of pain reactions

| Compound | inhibition in vivo at 64 mg/kg [%] |
| --- | --- |
| CC1CC(C)c2cc(CC(=O)O)ccc21 (stereo not drawn) [Example 1, [1,3-Dimethyl-indanyl-(5)]-acetic acid] | 67 |
| CC1CC(C)c2cc(CC(=O)O)c(Cl)cc21 (stereo not drawn) [Example 3, [6-Chloro-1,3-dimethyl-indanyl-(5)]-acetic acid] | 66 |
| CC(C)C1Cc2ccc(CC(=O)O)cc2C1 (stereo not drawn) [Example 4, [2-Isopropyl-indanyl-(5)]-acetic acid] | 70 |
| O=C(O)Cc1ccc2c(c1)CCC2C1CCCCC1 (stereo not drawn) [Example 5, [1-Cyclohexyl-indanyl-(5)]-acetic acid] | 32 |
| CC(C)C1Cc2ccc(CC(=O)OCCN3CCOCC3)cc2C1 (stereo not drawn) [Example 8, Hydrochloride of the morpholino-ethyl ester of [2-isopropyl-indanyl-(5)]-acetic acid] | 67 |
| O=C(O)Cc1ccc2c(c1)CC(C1CCCCC1)C2 (stereo not drawn) [Example 11, [2-Cyclohexyl-indanyl-(5)]-acetic acid] | 29 |
| CC(C(=O)O)c1ccc2c(c1)CC(C)(C)C2 (stereo not drawn) [Example 16, 2-Methyl-[2,2-dimethyl-indanyl-(5)]-acetic acid] | 96 |

Same assay, conditions: Mus musculus, po, 128 mg/kg oral, read-out: percentage inhibition of pain reactions

| Compound | inhibition in vivo at 128 mg/kg [%] |
| --- | --- |
| CC1CC(C)c2cc(CC(=O)O)ccc21 (stereo not drawn) [Example 1, [1,3-Dimethyl-indanyl-(5)]-acetic acid] | 89 |
| CC1CC(C)c2cc(CC(=O)O)c(Cl)cc21 (stereo not drawn) [Example 3, [6-Chloro-1,3-dimethyl-indanyl-(5)]-acetic acid] | 66 |
| CC(C)C1Cc2ccc(CC(=O)O)cc2C1 (stereo not drawn) [Example 4, [2-Isopropyl-indanyl-(5)]-acetic acid] | 99 |
| CC(C)C1Cc2ccc(CC(=O)OCCN3CCOCC3)cc2C1 (stereo not drawn) [Example 8, Hydrochloride of the morpholino-ethyl ester of [2-isopropyl-indanyl-(5)]-acetic acid] | 73 |
| O=C(O)Cc1ccc2c(c1)CC(C1CCCCC1)C2 (stereo not drawn) [Example 11, [2-Cyclohexyl-indanyl-(5)]-acetic acid] | 58 |

Same assay, conditions: Mus musculus, po, 256 mg/kg oral, read-out: percentage inhibition of pain reactions

| Compound | inhibition in vivo at 256 mg/kg [%] |
| --- | --- |
| CC1CC(C)c2cc(CC(=O)O)ccc21 (stereo not drawn) [Example 1, [1,3-Dimethyl-indanyl-(5)]-acetic acid] | 94 |
| CC1CC(C)c2cc(CC(=O)O)c(Cl)cc21 (stereo not drawn) [Example 3, [6-Chloro-1,3-dimethyl-indanyl-(5)]-acetic acid] | 94 |
| O=C(O)Cc1ccc2c(c1)CCC2C1CCCCC1 (stereo not drawn) [Example 5, [1-Cyclohexyl-indanyl-(5)]-acetic acid] | 58 |
| CC(C)C1Cc2ccc(CC(=O)OCCN3CCOCC3)cc2C1 (stereo not drawn) [Example 8, Hydrochloride of the morpholino-ethyl ester of [2-isopropyl-indanyl-(5)]-acetic acid] | 90 |
| O=C(O)Cc1ccc2c(c1)CC(C1CCCCC1)C2 (stereo not drawn) [Example 11, [2-Cyclohexyl-indanyl-(5)]-acetic acid] | 59 |

Same assay, conditions: Mus musculus, po, 512 mg/kg oral, read-out: percentage inhibition of pain reactions

| Compound | inhibition in vivo at 512 mg/kg [%] |
| --- | --- |
| O=C(O)Cc1ccc2c(c1)CC(C1CCCCC1)C2 (stereo not drawn) [Example 11, [2-Cyclohexyl-indanyl-(5)]-acetic acid] | 83 |

Same assay, conditions: Mus musculus, po, read-out: ED50 (50% effective dose), analgesic

| Compound | ED50 [mg/kg] |
| --- | --- |
| CC1CC(C)c2cc(CC(=O)O)ccc21 (stereo not drawn) [Example 1, [1,3-Dimethyl-indanyl-(5)]-acetic acid] | 43 |
| CC1CC(C)c2cc(CC(=O)O)c(Cl)cc21 (stereo not drawn) [Example 3, [6-Chloro-1,3-dimethyl-indanyl-(5)]-acetic acid] | 33 |
| CC(C)C1Cc2ccc(CC(=O)O)cc2C1 (stereo not drawn) [Example 4, [2-Isopropyl-indanyl-(5)]-acetic acid] | 40 |
| O=C(O)Cc1ccc2c(c1)CCC2C1CCCCC1 (stereo not drawn) [Example 5, [1-Cyclohexyl-indanyl-(5)]-acetic acid] | ~150 |
| CC(C)C1Cc2ccc(CC(=O)OCCN3CCOCC3)cc2C1 (stereo not drawn) [Example 8, Hydrochloride of the morpholino-ethyl ester of [2-isopropyl-indanyl-(5)]-acetic acid] | 70 |
| O=C(O)Cc1ccc2c(c1)CC(C1CCCCC1)C2 (stereo not drawn) [Example 11, [2-Cyclohexyl-indanyl-(5)]-acetic acid] | 140 |
| CC(C(=O)O)c1ccc2c(c1)CC(C)(C)C2 (stereo not drawn) [Example 16, 2-Methyl-[2,2-dimethyl-indanyl-(5)]-acetic acid] | 19 |
